Holding throughout (format): in vivo
For experiment [1], the system named is Globo H-specific IgM antibody. Kind of experiment: Immunization in mice with different Globo H:KLH ratios and antibody test by ELISA. The note with it: Balb/c mice, s.c. day 0, 7, 14, 21, with saponin adjuvant, sera, compared with PBS control or between weight ratios. On the procedure: Different samples of the glycoconjugates (Globo H-KLH) were stored at 4° C., and mixed with a saponin adjuvant under a laminar flow hood. The resultant vaccine compositions were placed on ice and transported to animal facility for subsequent immunization.
Balb/c mice of approximately eight weeks old were given Globo H-KLH glycoconjugate with different carbohydrate-to-protein (Globo H: KLH) ratios once every week for four weeks (Day 0, 7, 14, and 21) via subcutaneous injection. Blood samples were collected through retro-orbital or facial vein without anticoagulant pre-immune or Day 0, and three days after each vaccination (Day 10, 17 and 24). Samples were then centrifuged to separate sera and red cells. Sera were collected and stored at −20° C., which were later analyzed by ELISA. Mann-Whitney t-test was used for statistical analysis.
In general terms: An ELISA detects its analyte on a solid surface through an enzyme-linked reagent.

In experiment [2] the test system is Globo H-specific IgG and IgM antibodies. Kind of experiment: Globo H-specific antibody test by ELISA in plasma of immunized rats. The note with it: Lewis rats, after immunization. On the procedure:
(§1) Different samples of the glycoconjugates (Globo H-KLH) as prepared in Example 1 were stored at 4° C., and mixed with a saponin adjuvant under a laminar flow hood. The resultant vaccine compositions were placed on ice and transported to animal facility for subsequent immunization.
(§2) The rats were immunized on day 0, 7, 14, and 21. Peripheral blood mononuclear cells (PBMC) and plasma were collected on day 0, 3, 10, 17, 24, and 31. Spleen, lymph node, and peritoneal wash were harvested on day 31.
The production of Globo H-specific antibodies in the plasma from the immunized rats was determined by ELISA assay. […] There was no response of Globo H-specific IgG and IgM antibody in rats treated with PBS only.

Experiment [3] relates to B cells and T cells (CD3T, CD4T, CD8T) in PBMC. Description: Analysis of immune effector cell subpopulations in PBMC of immunized rats by flow cytometry. As to conditions: Lewis rats, s.c. immunization day 0, 7, 14, 21 with saponin adjuvant. The procedure: as §1, §2
The peripheral blood mononuclear cells (PBMCs) were isolated from the animals and then various immune effector cell subpopulations in the PBMC were identified by flow cytometry using specific antibodies against different cell markers The PBMCs, isolated from the immunized rats on day 0, 3, 10, 17, 24, and 31, were stained with different fluorescence (FITC)-conjugated antibodies and placed on ice for 30 minutes.

Take “Fucα(1→2) Galβ(1→3) GalNAcβ(1→3) Galα(1→4) Galβ(1→4) Gluβ(1-O-ethylhydrazyl-1-carbonyl-cyclohexyl-4-(methyl-N-maleimido)-3-(thiobutyl-imidyl)-Keyhole Limpet Hemocyanin (KLH) [OBI-822]”: the “Globo H-specific IgM antibody responses” value in experiment [1] was “significantly induce”. In experiment [2], the “time at which titers of Globo H-specific IgG began to rise” value is reported as 10 days and the “time at which titers of Globo H-specific IgG peaked” value was determined as 17 days. In experiment [3], the “day at which CD3T, CD4T and CD8T cells appeared” value amounted to 24 days; the “day at which the B cell population first appeared” value amounted to 3 days. For the same substance, in experiment [3] (flow cytometry), the “expansion of B cells and T cells compared to the PBS control group” value was “significantly expanded”.

(Values after patent publication US20160339089A1, “IMMUNOGENIC/THERAPEUTIC GLYCOCONJUGATE COMPOSITIONS AND USES THEREOF” (OBI PHARMA, INC., priority 2014, published 2016).)
